Assay results taken from PMC4445981, “The glutamate transport inhibitor DL-Threo-β-Benzyloxyaspartic acid (DL-TBOA) differentially affects SN38- and oxaliplatin-induced death of drug-resistant colorectal cancer cells” (BMC Cancer, 2015).

Experiments:
[1] = system: parental and drug-resistant HCT116 and LoVo cell lines; experiment: Nucleus (DAPI) counting of adherent cells, OPERA confocal; format: cell-based, human; conditions: DL-TBOA 70 or 350 μM with SN38 or oxaliplatin, 48 h
Procedure: Cells were seeded in 96-well plates (Greiner Bio) one day prior to experiments. Cells were treated with chemotherapy and/or inhibitors as indicated and incubated for 48 h. Medium was aspirated, and cells were washed gently in ice cold PBS, fixed in 2 % paraformaldehyde, washed in PBS, and nuclei stained by 5 min incubation with DAPI. Plates were scanned using an OPERA high-throughput microscope (PerkinElmer). Nucleus counting was performed using proprietary OPERA software, based on 100 points per well, and cell counts from non-treated cells as controls.
Supplementary file 12885_2015_1405_MOESM2_ESM.tiff: Additional file 2: Figure S2. Nucleus counting after treatment of parental and drug-resistant HCT116 and LoVo cells with DL-TBOA. Parental and drug-resistant HCT116 and LoVo cell lines seeded in 96-well dishes were exposed to SN38 (0.1 or 0.8 μM) or oxaliplatin (0.8 or 20 μM), alone or in combination with 70 or 350 μM DL-TBOA as indicated, for 48 h. Cells were washed in PBS, fixed in 2 % paraformaldehyde and nuclei were stained with DAPI. The number of adherent cells was determined by automated counting using an OPERA confocal microscope. (A-B) Parental HCT116 cells. (C) SN38 resistant HCT116 cells. (D) Oxaliplatin-resistant HCT116 cells. (E-F) Parental LoVo cells. (G) SN38 resistant LoVo cells. (H) Oxaliplatin-resistant LoVo cells. […]

PARP-1 cleavage = PARP-1 cleavage by Western blotting; format: cell-based, human; conditions: DL-TBOA; HCT116 and LoVo cells
Procedure: Cells were grown to a confluence of 60-80 % and treated with chemotherapy, siRNA- or plasmid transfection as indicated. Cells were washed once in PBS, lysed in lysis buffer (1 % SDS, 0.1 M Tris pH 7.5, and 1 mM Na3VO4), sonicated, and protein content determined (DC assay, BioRad). Lysates were mixed 2:1with NuPage LDS sample buffer (Invitrogen). SDS-PAGE was carried out in NOVEX chambers with NuPAGE 10 % Bis-Tris gels under reducing and denaturing conditions, using BenchMark protein ladder (Invitrogen), and 15 μg protein per lane. Proteins were transferred to PVDF membranes, which were Ponceau S stained, blocked for 1 h at 37 °C in 5 % nonfat dry milk in TBST (0.01 M Tris/HCl, 0.15 M NaCl, 0.1 % Tween 20, pH 7.4), incubated overnight at 4 °C with primary antibodies diluted in blocking buffer, washed in TBST, incubated with secondary antibodies for 1 h, washed in TBST, and developed using BCIP/NBT (KPL). Bands were scanned and quantified using UN-SCAN-IT (Silk Scientific).
Supplementary file 12885_2015_1405_MOESM3_ESM.tiff: Additional file 3: Figure S3. […] Equal amounts of protein per lane were separated by SDS-PAGE and the protein levels of p21, and PARP-1 (full-length and cleaved, the latter indicated by arrowheads) were determined by Western blotting. […] Bottom: Densitometric quantifications based on 3 independent experiments per condition. […]

For `N[C@H](C(=O)O)[C@H](OCc1ccccc1)C(=O)O` (racemic) [TBOA, DL-Threo-β-Benzyloxyaspartic acid], the “effect on number of surviving adherent cells after chemotherapy” value [1] was “opposite effects of DL-TBOA on SN38- and oxaliplatin-induced loss of viability are also evident” and the “effect on cellular level of cleaved PARP-1” value (PARP-1 cleavage) was “did not significantly alter”.
